Results taken from ChEMBL document CHEMBL5113511, “Discovery of Small-Molecule Degraders of the CDK9-Cyclin T1 Complex for Targeting Transcriptional Addiction in Prostate Cancer” (J Med Chem, 2022).
Activity calls are given as the source filed them.

Assays:
[1] = biological target: Cyclin-dependent kinase 9 (Homo sapiens, UniProt P50750); experiment: Induction of Flag-tagged CDK9 (unknown origin) polyubiquitination expressed in HEK293T cells co-transfected with HA-tagged Cyclin T1 and Myc ubiquitin assessed as increase in K48-linkage poly-ubiqutinated CDK9 level at 1 to 2 uM incubated for 20 hrs by immunoprecipitation analysis; type: cell-based; conditions: dose 1-2 µM
Cyclin-dependent kinase 9, sequence (P50750 whole entry): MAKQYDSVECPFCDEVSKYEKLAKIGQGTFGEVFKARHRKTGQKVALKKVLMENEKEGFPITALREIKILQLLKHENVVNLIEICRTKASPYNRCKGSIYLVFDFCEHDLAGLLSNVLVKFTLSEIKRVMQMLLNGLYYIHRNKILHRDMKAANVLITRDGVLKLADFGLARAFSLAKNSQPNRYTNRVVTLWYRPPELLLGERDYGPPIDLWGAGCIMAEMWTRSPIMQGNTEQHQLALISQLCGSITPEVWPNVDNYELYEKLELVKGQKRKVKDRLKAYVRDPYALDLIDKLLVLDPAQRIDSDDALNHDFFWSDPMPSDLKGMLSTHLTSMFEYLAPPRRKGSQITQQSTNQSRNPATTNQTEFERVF

[2] = biological target: T1, CDK9/cyclin T1 (Homo sapiens) (UniProt O60563+P50750); experiment: Induction of CDK9/Cyclin T1 degradation in human 22Rv1 cells assessed as downregulation of JMJD6 protein expression at 2 uM measured after 24 hrs by immunoblot analysis; type: cell-based
CWR22R [3] = experiment: Downregulation of CDK1 level in human 22Rv1 cells at 3 uM measured after 12 hrs by DIA-based proteomics analysis; type: functional, cell-based
[4] = biological target: T1, CDK9/cyclin T1 (Homo sapiens); experiment: Induction of CDK9/Cyclin T1 degradation in human 22Rv1 cells assessed as downregulation of IKBKE gene expression at 2 uM incubated for 24 hrs by RNA-Seq based analysis; type: cell-based
[5] = biological target: G1/S-specific cyclin-E1 (Homo sapiens) (UniProt P24864); experiment: Induction of HyT-mediated degradation of cyclin E1 in human 22Rv1 cells assessed as reduction in cyclin E1 level at 6 uM incubated for 24 hrs by immunoblot analysis; type: cell-based
G1/S-specific cyclin-E1 (Homo sapiens), sequence (P24864 whole entry): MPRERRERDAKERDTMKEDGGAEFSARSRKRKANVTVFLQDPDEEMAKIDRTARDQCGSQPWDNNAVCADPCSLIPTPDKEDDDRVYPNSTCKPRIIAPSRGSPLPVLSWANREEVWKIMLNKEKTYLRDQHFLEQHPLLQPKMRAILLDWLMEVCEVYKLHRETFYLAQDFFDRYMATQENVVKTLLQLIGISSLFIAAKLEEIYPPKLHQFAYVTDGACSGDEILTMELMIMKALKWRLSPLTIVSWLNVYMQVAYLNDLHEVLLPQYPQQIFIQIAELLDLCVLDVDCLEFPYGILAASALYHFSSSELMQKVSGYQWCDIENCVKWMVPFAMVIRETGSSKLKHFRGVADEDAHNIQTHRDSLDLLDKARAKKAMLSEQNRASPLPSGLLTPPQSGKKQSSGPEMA

[6] = biological target: T1, CDK9/cyclin T1 (Homo sapiens); experiment: Induction of CDK9/Cyclin T1 degradation in human 22Rv1 cells assessed as downregulation of c-Myc protein expression at 2 uM measured after 24 hrs by immunoblot analysis; type: cell-based
CWR22R [7] = experiment: Antiproliferative activity against human 22Rv1 cells assessed as reduction in cell viability measured after 5 days by CellTiter-Glo assay; type: functional, cell-based; conditions: 22Rv1, 120 h

CC(C)[C@@H]1CC[C@@H](C)C[C@H]1OCC(=O)NCCS(=O)(=O)N1CCC(C(=O)Nc2ncc(SCc3ncc(C(C)(C)C)o3)s2)CC1
active: Activity [1] | Activity [2] | inhibition (CWR22R [3]) | Activity [4] | Activity [5] | Activity [6]
95 nM: IC50 (CWR22R [7])
